From patent US20240415967A1, “DEGRADABLE NEAR-INFRARED PHOTOSENSITIZERS, PREPARATION METHODS, APPLICATIONS THEREOF” (BEIJING INSTITUTE OF COLLABORATIVE INNOVATION, priority 2021, published 2024)
pIC50: −log10 of the molar value.

Experiments:
[1] = Detection of singlet oxygen with 1,3-diphenylisobenzofuran (DPBF) capture spectrophotometry; assay type: physicochemical; conditions: DPBF absorbance at 416 nm, 700 nm LED 1.25 mW/cm^2
Description: A phosphorescence emission of singlet oxygen was easily quenched by water molecules, and the singlet oxygen generated by the target product was detected by using chemical capture spectrophotometry. 1,3-diphenylisobenzofuran (DPBF) was one of the most commonly used singlet oxygen capture agents, and 1,3-diphenylisobenzofuran reacted with the singlet oxygen rapidly to generate a colorless substance, and a content of the singlet oxygen may be reflected by detecting a variation of an absorbance of the 1,3-diphenylisobenzofuran (DPBF) at a characteristic absorption peak (416 nm) using the UV-visible absorption spectrum. An irradiation condition was a 700 nm light-emitting diode (LED) lamp of 1.25 mW/cm^2, a characteristic absorption of the 1,3-diphenylisobenzofuran (DPBF) at the characteristic absorption peak of 416 nm was gradually weakened.

[2] = tested on: HeLa human cervical cancer cells; test: Detection of cellular phototoxicity (CCK-8 cell viability); assay type: cell-based; conditions: 700 nm LED 2.5 mW/cm^2 for 10 min
Description: The cells used in the experiment were HeLa human cervical cancer cells. Cell culture was performed in a DMEM complete culture medium (purchased from Genye, 500 mL) supplemented with 10% inactivated fetal bovine serum (purchased from Shuohua, 500 mL) with 1% penicillin-streptomycin (purchased from Corning, 100 mL) at a temperature of 37° C. and an atmosphere of 5% carbon dioxide.
Sub-cultured Hela cells were digested by trypsin and dispersed in the culture medium at an appropriate concentration. […]
100 μL of PBS buffer was added to each well, and an irradiation condition was a 700 nm light-emitting diode lamp of 2.5 mW/cm^2 for 10 min. […] During this process, a monosodium salt of 2-(2-methoxy-4-nitrophenyl)-3-(4-nitrophenyl)-5-(2,4-disulfonate phenyl)-2H-tetrazolium (WST-8) in the CCK-8 reagent with an electron coupling reagent may be reduced to a water-soluble yellow formazan product by living cells, which causes an absorbance of the solution at 450 nm to vary, and values of variation may be proportional to a count of living cells. The variation of the absorbance at 450 nm of each well was measured using an enzyme labeling apparatus, and a cell viability at each incubation concentration was calculated according to a formula: […]

[3] = Monitoring of self-degradation / photodegradation of the photosensitizer in solution (UV-vis, emission, HPLC); assay type: physicochemical
Description: In the test of Embodiment 7, an irradiation condition was the 700 nm light-emitting diode lamp of 1.25 mW/cm^2 for 0 min-2 min, the characteristic absorption of 1,3-diphenylisobenzofuran (DPBF) at the characteristic absorption peak of 416 nm was gradually weakened.
The target product obtained in Embodiment 3 was placed under a light-emitting diode lamp for irradiation, and an irradiation condition was 700 nm of 10 mW/cm^2, and the UV-visible absorption spectrum and an emission spectrum of the target product were recorded during irradiation.
As a control, the reference compound prepared in Embodiment 4 was placed under a light-emitting diode lamp for irradiation, the irradiation condition was 640 nm, 10 mW/cm^2, and the UV-visible absorption spectrum and the emission spectrum of the reference compound were recorded during irradiation.

[4] = tested on: HeLa human cervical cancer cells; test: Medicine phototherapy at an animal level (subcutaneous tumor model); assay type: in vivo, BALB/C nude mice; conditions: 0.2 mg/kg in situ injection, 2 weeks
Description: All animal experiments in the in vivo experiments were performed in strict compliance with the Chinese regulations for animal experiments using BALB/C nude mice, 5 weeks of age of the mouse, male, and a range of 16 g-25 g of body weight. Each mouse was subcutaneously inoculated with 100 uL of HeLa human cervical cancer cells in the right hind limb (5×10^6) to construct the tumor model, and the experiments were performed two weeks later.
Mice were randomly grouped by number, and the experiment was divided into an irradiation control group (including irradiation), a dark control group (including a target product; and a degradation product), and an experimental group (including target product+irradiation; and degradation product+irradiation), with six mice in each group. The dark control and experimental groups were administered by in situ injection, respectively: a dose of 0.2 mg/kg was administered, and 20 μL (0.2 mg/ml) of PBS solution of the target product or degradation product was injected in situ. After 30 min, the irradiation control and experimental groups were irradiated, and an irradiation condition was a 700 nm light-emitting diode lamp of 100 mW/cm^2, and 10 min of irradiation per mouse. The six mice were not given a light-avoidance process after therapy and were put into rearing cages to continue to feed, and every two days, a tumor volume was measured by vernier calipers and the body weight was weighed. The mice were therapized for 2 weeks.

[5] = UV-visible absorption and emission spectrum scanning (photophysical property); assay type: physicochemical; conditions: light excitation, FIG. 8
Description: A UV-visible absorption spectrum scanning and an emission spectrum scanning were performed on the target product prepared in Embodiment 3, and the scanning results are shown in FIGS. 7 and 8. […] Therefore, the target product may include a deep tissue penetration depth in photodynamic therapy or in vivo fluorescence imaging.

[6] = Photosensitization side effects of a photosensitizer at an animal level; assay type: in vivo, BALB/C nude mice; conditions: 0.2 mg/kg subcutaneous, site irradiated 10 min (700 nm target product, 640 nm reference compound, 100 mW/cm^2), then simulated natural light 10 mW/cm^2 for 1 hour
Description: All animal experiments in the in vivo experiments were performed in strict compliance with the Chinese regulations for animal experiments, using BALB/C nude mice, 5 weeks of age of the mouse, male, and a range of 16 g-25 g of body weight.
The mice were randomly grouped by number, and the experiment was divided into a target product group, a reference compound group, and an irradiation control group, with 3 mice in each group. Each of the mice was injected subcutaneously into an abdomen with 20 μL (0.2 mg/mL) of the target product, reference compound solution, or PBS solution, and an administered dose was 0.2 mg/kg. After the injection, a site of administration was irradiated, an irradiation condition of the target product was a 700 nm light-emitting diode lamp, and an irradiation condition of the reference compound was a 640 nm light-emitting diode lamp of 100 mW/cm^2, each of the mice was irradiated for 10 min, and no processing was performed in the irradiation control group. The state of the mouse was observed and a body temperature of the mouse was recorded with a thermal imager. Further, the three groups of mice were exposed to a simulated natural light of 10 mW/cm^2 and irradiated for 1 hour.

[7] = Detection of superoxide anion free radicals with dihydroethidium (DHE) probe under irradiation; assay type: physicochemical; conditions: water solution 10 μM, air atmosphere, 700 nm LED 1.25 mW/cm^2
Description: Under an air atmosphere, dihydroethidium (DHE) was added to a water solution (10 μM) of the target product prepared in Embodiment 3 as a probe of superoxide anion free radicals, and an irradiation condition was a 700 nm light-emitting diode lamp of 1.25 mW/cm^2, a fluorescence of ethidium oxide generated by an oxidation of the DHE by the superoxide radicals was detected, and a fluorescence intensity enhanced with the increase of an irradiation time.

## C[N+](C)(C)c1c(F)c(F)c(C2=C3C(=O)OC4=[N+]3[Zn]35[n]6c2ccc6-c2c(oc6c(F)c([N+](C)(C)C)c(F)c(F)c26)[N+]3=c2oc3c(F)c([N+](C)(C)C)c(F)c(F)c3c2=c2ccc([n]25)=C4c2c(F)c(F)c([N+](C)(C)C)c(F)c2F)c(F)c1F (stereo not drawn) [target product]
[1]
  generation of singlet oxygen: ability to produce singlet oxygen under irradiation
[2]; 0 μM-4 μM, FIGS. 16-17
  cellular phototoxicity: relatively strong cellular phototoxicity under irradiation
[2]; Homo sapiens, 24 h incubation, CCK-8, read-out: half-lethal concentration IC50
  pIC50: 6.00
[3]; 700 nm LED 2.5 mW/cm^2 for 0 min-10 min, FIG. 15
  photodegradation process monitored by HPLC: able to self-degrade and gradually be converted into the degradation product
[3]; 700 nm LED 10 mW/cm^2, FIGS. 29-30
  photodegradation in solution (absorption and emission spectra during irradiation): degraded under irradiation
[3]; 700 nm LED 10 mW/cm^2 for 2 min-4 min, FIG. 13
  degradation under irradiation (characteristic absorption at 440 nm and 710 nm): degraded under irradiation
[3]; FIG. 14
  photodegradation rate as a function of irradiation intensity: accelerated with the increase in irradiation intensity
[4]; 700 nm LED 100 mW/cm^2 10 min
  body weight, with irradiation: no significant weight loss
[4]; 700 nm LED 100 mW/cm^2 10 min single irradiation
  tumor growth (tumor volume), with irradiation: effectively inhibited a growth of a subcutaneous tumor
[4]; no irradiation
  body weight, dark control: no significant weight loss
  tumor growth (tumor volume), dark control: grows rapidly
[5]
  fluorescence spectrum region: in the near-infrared region
[6]
  body temperature after natural light (thermal imager): no significant variation
  reactions / photosensitization side effects after natural light: did not exhibit abnormal reactions
[7]
  generation of superoxide anion free radicals: ability to generate the superoxide anion free radicals under irradiation
